Read-outs that look alike come from different tables or passages of the source.
How the values were obtained:
Assay in all cases: Thermal stability shift assay
Type in all cases: binding
ALK4 = biological target: T1, ALK4 (Homo sapiens, UniProt P36896); conditions: read-out: Tm shift ALK4
T1 sequence (P36896 24-505): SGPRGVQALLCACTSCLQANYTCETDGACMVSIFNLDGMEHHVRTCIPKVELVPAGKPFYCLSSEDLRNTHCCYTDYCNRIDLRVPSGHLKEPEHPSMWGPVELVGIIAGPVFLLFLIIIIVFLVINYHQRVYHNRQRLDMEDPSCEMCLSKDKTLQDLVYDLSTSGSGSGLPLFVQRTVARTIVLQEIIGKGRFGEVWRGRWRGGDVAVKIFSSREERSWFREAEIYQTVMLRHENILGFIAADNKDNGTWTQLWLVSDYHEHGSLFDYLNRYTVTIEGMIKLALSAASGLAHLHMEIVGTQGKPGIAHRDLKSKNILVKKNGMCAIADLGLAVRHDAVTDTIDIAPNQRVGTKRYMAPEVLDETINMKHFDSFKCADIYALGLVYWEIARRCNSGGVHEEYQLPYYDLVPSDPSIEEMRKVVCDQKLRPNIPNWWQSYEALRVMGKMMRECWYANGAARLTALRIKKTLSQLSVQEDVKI
Outline: (§1)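 Protein at 2 μM was heated with 10 μM inhibitor in 10 mM HEPES pH 7.5, 500 mM NaCl containing SyproOrange (1:1000 dilution); thermal denaturation was followed by fluorescence in a real-time PCR instrument.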

DCAMKL1 = biological target: T2, DCAMKL1 (Homo sapiens, UniProt O15075); conditions: read-out: Tm shift DCAMKL1
T2 construct: purchased in-house (SGC Oxford thermal shift panel)
T2 sequence (O15075 1-740): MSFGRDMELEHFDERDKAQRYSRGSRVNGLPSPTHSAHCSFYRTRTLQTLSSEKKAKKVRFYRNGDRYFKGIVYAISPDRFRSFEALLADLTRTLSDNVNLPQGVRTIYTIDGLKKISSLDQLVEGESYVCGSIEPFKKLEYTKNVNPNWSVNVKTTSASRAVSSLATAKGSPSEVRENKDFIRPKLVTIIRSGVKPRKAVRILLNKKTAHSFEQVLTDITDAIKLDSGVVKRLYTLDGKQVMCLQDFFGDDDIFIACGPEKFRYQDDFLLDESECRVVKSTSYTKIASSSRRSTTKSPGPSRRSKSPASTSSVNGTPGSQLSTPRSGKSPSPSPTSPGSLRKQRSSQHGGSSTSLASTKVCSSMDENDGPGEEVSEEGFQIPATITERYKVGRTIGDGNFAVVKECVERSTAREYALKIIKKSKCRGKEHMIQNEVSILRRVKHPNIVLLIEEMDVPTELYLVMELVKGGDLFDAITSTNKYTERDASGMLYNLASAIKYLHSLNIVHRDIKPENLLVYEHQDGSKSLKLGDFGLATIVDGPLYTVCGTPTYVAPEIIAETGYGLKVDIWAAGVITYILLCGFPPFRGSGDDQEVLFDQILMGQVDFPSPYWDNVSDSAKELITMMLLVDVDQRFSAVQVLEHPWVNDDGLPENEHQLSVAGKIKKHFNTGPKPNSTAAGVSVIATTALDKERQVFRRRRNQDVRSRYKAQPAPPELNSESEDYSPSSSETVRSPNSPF
Outline: as §1

JNK1 = biological target: T3, JNK1 (Homo sapiens, UniProt P45983); conditions: read-out: Tm shift JNK1
T3 construct: purchased in-house (SGC Oxford thermal shift panel)
T3 sequence (P45983 whole entry): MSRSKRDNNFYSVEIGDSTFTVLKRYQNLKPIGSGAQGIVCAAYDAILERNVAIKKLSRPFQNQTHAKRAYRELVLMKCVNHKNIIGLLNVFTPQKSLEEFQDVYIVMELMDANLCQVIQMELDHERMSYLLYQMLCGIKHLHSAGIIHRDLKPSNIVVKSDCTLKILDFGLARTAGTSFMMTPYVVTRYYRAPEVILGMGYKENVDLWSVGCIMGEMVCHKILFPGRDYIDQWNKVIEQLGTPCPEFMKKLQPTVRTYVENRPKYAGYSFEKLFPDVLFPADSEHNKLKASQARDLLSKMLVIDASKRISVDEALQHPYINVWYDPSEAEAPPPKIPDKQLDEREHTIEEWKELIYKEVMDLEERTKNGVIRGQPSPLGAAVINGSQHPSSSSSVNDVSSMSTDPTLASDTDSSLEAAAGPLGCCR
Outline: as §1

PKG1 = biological target: T4, PKG1 (Homo sapiens, UniProt Q13976); conditions: read-out: Tm shift PKG1
T4 sequence (Q13976 1-671): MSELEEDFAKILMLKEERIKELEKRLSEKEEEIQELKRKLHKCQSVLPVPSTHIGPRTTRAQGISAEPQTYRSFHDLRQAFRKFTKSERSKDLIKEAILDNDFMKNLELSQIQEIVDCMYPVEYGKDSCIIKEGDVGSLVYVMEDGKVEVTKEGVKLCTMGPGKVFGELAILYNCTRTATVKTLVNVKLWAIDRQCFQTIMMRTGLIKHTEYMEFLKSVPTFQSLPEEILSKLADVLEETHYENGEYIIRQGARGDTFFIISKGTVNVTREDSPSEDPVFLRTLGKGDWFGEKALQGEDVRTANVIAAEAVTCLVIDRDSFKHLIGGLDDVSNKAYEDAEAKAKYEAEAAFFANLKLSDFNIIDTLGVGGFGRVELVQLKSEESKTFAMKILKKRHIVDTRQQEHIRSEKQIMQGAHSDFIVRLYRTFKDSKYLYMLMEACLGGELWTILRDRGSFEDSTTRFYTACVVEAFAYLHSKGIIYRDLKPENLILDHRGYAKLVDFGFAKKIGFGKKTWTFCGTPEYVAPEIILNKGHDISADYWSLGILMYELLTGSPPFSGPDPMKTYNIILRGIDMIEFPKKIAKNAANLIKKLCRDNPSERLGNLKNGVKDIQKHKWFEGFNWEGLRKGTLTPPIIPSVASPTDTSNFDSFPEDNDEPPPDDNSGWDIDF
Outline: as §1

RSK4 = RSK4 (Homo sapiens, UniProt Q9UK32); conditions: read-out: Tm shift RSK4
RSK4, sequence (Q9UK32 whole entry): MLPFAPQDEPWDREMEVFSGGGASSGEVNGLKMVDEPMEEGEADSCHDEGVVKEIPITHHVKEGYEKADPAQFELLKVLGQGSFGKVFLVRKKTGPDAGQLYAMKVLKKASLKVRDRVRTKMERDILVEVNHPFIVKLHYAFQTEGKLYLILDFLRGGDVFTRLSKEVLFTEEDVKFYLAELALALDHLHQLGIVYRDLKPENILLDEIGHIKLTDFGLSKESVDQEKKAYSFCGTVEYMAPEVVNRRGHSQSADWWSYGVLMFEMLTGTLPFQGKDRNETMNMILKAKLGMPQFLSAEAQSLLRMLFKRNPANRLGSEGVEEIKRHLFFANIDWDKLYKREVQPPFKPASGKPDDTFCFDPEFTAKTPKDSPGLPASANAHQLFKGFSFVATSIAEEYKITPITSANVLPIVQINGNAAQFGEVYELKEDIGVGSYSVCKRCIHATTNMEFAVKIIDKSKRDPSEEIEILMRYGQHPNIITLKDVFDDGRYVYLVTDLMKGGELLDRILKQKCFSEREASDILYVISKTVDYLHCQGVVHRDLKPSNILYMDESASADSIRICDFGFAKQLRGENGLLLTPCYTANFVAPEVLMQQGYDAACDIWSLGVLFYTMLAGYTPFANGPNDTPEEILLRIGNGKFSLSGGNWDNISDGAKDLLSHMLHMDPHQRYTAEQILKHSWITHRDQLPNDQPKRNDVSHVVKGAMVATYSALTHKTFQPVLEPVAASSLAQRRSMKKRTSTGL
Outline: as §1

smMLCK = smMLCK (Homo sapiens, UniProt Q15746); conditions: read-out: Tm shift smMLCK
smMLCK, sequence (Q15746 whole entry): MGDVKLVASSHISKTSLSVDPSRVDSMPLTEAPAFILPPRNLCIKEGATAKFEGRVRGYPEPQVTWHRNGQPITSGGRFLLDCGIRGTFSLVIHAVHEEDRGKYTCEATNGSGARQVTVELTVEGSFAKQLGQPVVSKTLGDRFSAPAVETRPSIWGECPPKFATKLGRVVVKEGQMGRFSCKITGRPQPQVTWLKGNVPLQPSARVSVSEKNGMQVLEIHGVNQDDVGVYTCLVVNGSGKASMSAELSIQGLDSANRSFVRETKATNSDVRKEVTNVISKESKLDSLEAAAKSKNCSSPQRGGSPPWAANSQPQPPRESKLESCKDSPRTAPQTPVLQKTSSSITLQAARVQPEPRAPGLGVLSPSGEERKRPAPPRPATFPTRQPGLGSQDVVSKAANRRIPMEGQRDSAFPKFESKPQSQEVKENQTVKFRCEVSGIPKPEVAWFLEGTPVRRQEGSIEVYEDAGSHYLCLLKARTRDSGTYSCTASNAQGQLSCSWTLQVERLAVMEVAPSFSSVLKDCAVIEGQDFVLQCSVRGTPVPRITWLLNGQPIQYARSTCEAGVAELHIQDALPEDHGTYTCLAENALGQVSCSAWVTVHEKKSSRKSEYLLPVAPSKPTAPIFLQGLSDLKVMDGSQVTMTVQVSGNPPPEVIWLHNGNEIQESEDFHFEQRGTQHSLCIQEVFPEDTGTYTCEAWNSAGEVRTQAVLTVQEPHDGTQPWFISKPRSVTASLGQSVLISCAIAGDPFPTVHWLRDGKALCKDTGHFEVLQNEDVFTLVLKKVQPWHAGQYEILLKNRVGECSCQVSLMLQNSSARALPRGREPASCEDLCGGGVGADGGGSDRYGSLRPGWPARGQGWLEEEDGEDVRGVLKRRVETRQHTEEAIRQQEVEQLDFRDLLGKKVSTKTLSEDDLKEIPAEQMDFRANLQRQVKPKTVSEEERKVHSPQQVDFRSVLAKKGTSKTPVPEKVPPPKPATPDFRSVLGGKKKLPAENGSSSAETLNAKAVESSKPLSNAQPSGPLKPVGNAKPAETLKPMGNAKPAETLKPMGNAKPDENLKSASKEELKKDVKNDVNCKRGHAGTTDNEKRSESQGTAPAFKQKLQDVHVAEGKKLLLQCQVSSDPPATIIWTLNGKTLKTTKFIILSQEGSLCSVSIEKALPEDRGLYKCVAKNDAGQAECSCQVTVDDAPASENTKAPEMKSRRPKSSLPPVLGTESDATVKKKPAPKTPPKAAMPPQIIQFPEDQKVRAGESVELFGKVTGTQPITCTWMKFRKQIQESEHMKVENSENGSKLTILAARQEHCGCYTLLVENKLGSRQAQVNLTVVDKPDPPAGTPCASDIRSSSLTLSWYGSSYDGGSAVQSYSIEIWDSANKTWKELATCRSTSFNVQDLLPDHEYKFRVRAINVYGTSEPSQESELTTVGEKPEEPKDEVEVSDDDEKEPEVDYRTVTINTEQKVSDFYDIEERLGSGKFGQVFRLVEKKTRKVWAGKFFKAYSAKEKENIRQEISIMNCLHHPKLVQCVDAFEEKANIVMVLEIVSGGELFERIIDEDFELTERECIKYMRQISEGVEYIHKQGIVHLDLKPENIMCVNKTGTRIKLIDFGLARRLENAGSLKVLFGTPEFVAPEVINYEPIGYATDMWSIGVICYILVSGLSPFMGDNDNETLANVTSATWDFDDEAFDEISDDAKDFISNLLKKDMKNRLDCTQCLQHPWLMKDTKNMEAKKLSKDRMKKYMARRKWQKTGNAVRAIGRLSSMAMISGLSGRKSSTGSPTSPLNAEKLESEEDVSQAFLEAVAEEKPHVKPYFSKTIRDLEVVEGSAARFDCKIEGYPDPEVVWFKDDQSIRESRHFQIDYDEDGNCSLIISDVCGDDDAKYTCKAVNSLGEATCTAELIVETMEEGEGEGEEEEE
Outline: as §1

ΔTm at 10 µM (ALK4; inhibitor 10 μM) [°C] | ΔTm at 10 µM (DCAMKL1; inhibitor 10 μM) [°C] | ΔTm at 10 µM (JNK1; inhibitor 10 μM) [°C] | ΔTm at 10 µM (PKG1; inhibitor 10 μM) [°C] | ΔTm at 10 µM (RSK4; inhibitor 10 μM) [°C] | ΔTm at 10 µM (smMLCK; inhibitor 10 μM) [°C] | Compound | ΔTm at 10 µM (ALK4) [°C] | ΔTm at 10 µM (DCAMKL1) [°C] | ΔTm at 10 µM (JNK1) [°C] | ΔTm at 10 µM (PKG1) [°C] | ΔTm at 10 µM (RSK4) [°C] | ΔTm at 10 µM (smMLCK) [°C]
4 | 0.7 | 0.1 | 0.3 | -0.2 | 1.1 | CCOC(=O)c1c(C(C#N)=CN(C)C)c2ccc(Cl)c(Cl)c2n1C (mixture of isomers) [compound 2, (E/Z)-Ethyl 6,7-Dichloro-3-[1-Cyano-2-(Dimethylamino)Vinyl]-1-Methyl-1H-Indole-2-Carboxylate] | – | – | – | – | – | –
– | – | – | – | – | – | CCOC(=O)c1c(/C(C#N)=C\N)c2ccc(Cl)c(Cl)c2n1C [KH-CB19, (E)-Ethyl 3-(2-Amino-1-Cyanovinyl)-6,7-Dichloro-1-Methyl-1H-Indole-2-Carboxylate] | 1.2 | -0.2 | 0.9 | 0.8 | 1.6 | 0.5
– | – | – | – | – | – | CCOC(=O)c1c(C(C#N)=CN)c2ccc(Cl)c(Cl)c2n1C (mixture of isomers) [KH-CB20, (E/Z)-Ethyl 3-(2-Amino-1-Cyanovinyl)-6,7-Dichloro-1-Methyl-1H-Indole-2-Carboxylate] | 1.4 | -0.1 | 0.2 | 0.5 | 1.1 | 0.6
0.9 | 0 | 0.2 | 0.6 | 1.3 | 0.5 | Cn1c2c(Cl)c(Cl)ccc2c2c(C#N)c[nH]c(=O)c21 [compound 3, 7,8-Dichloro-9-Methyl-1-Oxo-2,9-Dihydro-1H-Pyrido[3,4-b]Indole-4-Carbonitrile] | – | – | – | – | – | –

Compound | ΔTm at 10 µM (ALK4; inhibitor 10 μM) [°C] | ΔTm at 10 µM (DCAMKL1; inhibitor 10 μM) [°C] | ΔTm at 10 µM (JNK1; inhibitor 10 μM) [°C] | ΔTm at 10 µM (PKG1; inhibitor 10 μM) [°C] | ΔTm at 10 µM (RSK4; inhibitor 10 μM) [°C] | ΔTm at 10 µM (smMLCK; inhibitor 10 μM) [°C] | ΔTm at 10 µM (ALK4) [°C] | ΔTm at 10 µM (DCAMKL1) [°C] | ΔTm at 10 µM (JNK1) [°C] | ΔTm at 10 µM (PKG1) [°C] | ΔTm at 10 µM (RSK4) [°C] | ΔTm at 10 µM (smMLCK) [°C]
NC1=NC(=O)/C(=C2\CCNC(=O)c3[nH]c(Br)cc32)N1 [Hymenialdisine, hymenialdisine, reference compound] | 4.9 | 0.5 | -0.5 | 1.4 | 1.7 | 1.9 | – | – | – | – | – | –

Reference: article PMC3145970, “Specific CLK Inhibitors from a Novel Chemotype for Regulation of Alternative Splicing” (Chemistry & Biology, 2011)
